System: CD4+ T-lymphocytes from SJL mice
Test: Flow cytometry of surface marker expression in T-lymphocytes of immunized SJL mice
Type: in vivo
From the text: To characterize the features of immune response development upon immunization with a fusion protein comprising the neuroantigen MBP, a comparative analysis of specific surface markers expression in T-lymphocytes from SJL mice that were not immunized (control), from mice immunized with the synthetic peptide MBP89-104, recombinant fusion protein gp120I-IIImbp (the product of Construct No. 15 (see FIG. 3) at two different doses and recombinant protein gp120I-III (the product of Construct No. 13 (see FIG. 3) was carried out (FIG. 11). All the immunizations were performed in parallel under identical conditions as described above. Twenty one days after the beginning of an experiment, CD4+ T-lymphocytes isolated from two mice of each group were analyzed by flow cytometry. A specific feature of SJL mice was initially low CD8+ T-cell counts.

Sequence: VVHFFKNIVTPRTPPPS [peptide MBP, encephalitogenic 89-104 peptide of the myelin basic protein, reference compound]
- T-cell immune response by day 21 after immunization (surface markers CD11a, CD44, CD45RB, CD62-L): fully developed T-cell immune response
